{
  "source": "patent US20250064773A1",
  "about": "“TARGETING ERO1 ALPHA WITH AURONE DERIVATIVES” (West Virginia University Board of Governors on behalf of …, priority 2021, published 2025)",
  "system": "PC-9 ERO1α knockout clones",
  "experiment": "Soft agar clonogenic assay, PC-9 ERO1α knockout clones",
  "format": "cell-based",
  "details": "14 days, 3.75-15 μM",
  "experimental": "We utilized an MTT assay to determine the potency of the compounds for inhibiting cell growth. […] We next asked whether T151742 induced inhibition of cell growth was dependent on ERO1α expression. As shown in FIG. 6C two ERO1α deleted clones in the PC-9 cell line were isolated. Using an MTT assay to determine overall cellar viability, a non-targeted control (scramble), and both ERO1α knockout clones was subjected to treatment with T151742 for 72 hours (See FIG. 6D). […] Though only slight differences were observed between T151742 and EN-460 we tested the effects of these compounds in a clonogenic assay which is a better test for inhibition of self-renewal.\nFIG. 7A and FIG. 7B show 1000 cells/well were plated in a 12-well plate in triplicate with either 0.5% DMSO, T151742, or EN-460 and allowed to form colonies for 14 days. Colonies were subsequently stained with 0.01% Crystal Violet, imaged, and quantified using ImageJ. […] Colonies were stained with 0.01% Crystal Violet, imaged, and quantified using ImageJ.\nCell Lines: PC-9 cell line used was obtained from Sigma Aldrich and grown in RPMI 1640 medium with 10% fetal bovine serum and 1% penicillin/streptomycin. […] Plate was then read on the BioTek Cytation 5 at 530/590 nm. […] Plate was then read at 570 nm. […] Images were then quantified using ImageJ. […]",
  "data": [
    {"compound": "CN(C)c1ccc(/C=C2\\Oc3cc(O)ccc3C2=O)cc1", "note": "[Compound T151742]", "values": [
      {"measurement": "sensitivity of ERO1α knockout clones in clonogenic assay", "value": "completely resistant"}
    ]}
  ]
}
